One block for each compound: values may come before it.
How the values were obtained:
[1] = tested on: human CD34+ hematopoietic stem cells; experiment: Erythroid differentiation of human CD34+ cells (CD235a, flow cytometry); format: cell-based; details: eleven days in culture
Protocol: (§1) Compound 10 was tested at different concentrations for its ability to induce proliferation and differentiation of human CD34+ hematopoietic stem cells. Human CD34+ cells were purified by (FIG. 6A) immunomagnetic beads (>90% purity, purchased from Stem Cell Technologies) or (FIG. 6B) cell sorting (at Blood Systems Research Institute) and the cells were cultured in the presence of compounds for eight (FIG. 6A) or eleven (FIG. 6B) days. (FIG. 6A) The level of cell growth and survival was measured based on ATP levels (CellTiterGlo reagent), or (FIG. 6B) the expression level of CD235a was analyzed by flow cytometry as a marker for cell maturation. Cell survival was analyzed using the CellTiterGlo reagent to measure ATP levels as a marker of metabolically active cells that have not undergone apoptosis, and expression of CD235a as a marker of erythroid cell differentiation and as a specific marker for EPO-like erythropoietic activity.

[2] = tested on: human CD34+ hematopoietic stem cells; experiment: Proliferation of human CD34+ cells (ATP, CellTiterGlo); format: cell-based; details: eight days in culture
Protocol: as §1

TF-1 cells = experiment: TF-1 cell proliferation; format: cell-based, human; details: at concentrations that provided significant neuroprotective effects
EPO receptor [3] = target: T1, EPO receptor (Homo sapiens, UniProt P19235); experiment: EPO receptor phosphorylation in TF-1 cells (phospho-EPOR ELISA); format: cell-based; parameters: endogenous in cells; host or cells: TF-1 human erythroleukemia cell line; details: TF-1, 10 min
T1 sequence (P19235 25-508): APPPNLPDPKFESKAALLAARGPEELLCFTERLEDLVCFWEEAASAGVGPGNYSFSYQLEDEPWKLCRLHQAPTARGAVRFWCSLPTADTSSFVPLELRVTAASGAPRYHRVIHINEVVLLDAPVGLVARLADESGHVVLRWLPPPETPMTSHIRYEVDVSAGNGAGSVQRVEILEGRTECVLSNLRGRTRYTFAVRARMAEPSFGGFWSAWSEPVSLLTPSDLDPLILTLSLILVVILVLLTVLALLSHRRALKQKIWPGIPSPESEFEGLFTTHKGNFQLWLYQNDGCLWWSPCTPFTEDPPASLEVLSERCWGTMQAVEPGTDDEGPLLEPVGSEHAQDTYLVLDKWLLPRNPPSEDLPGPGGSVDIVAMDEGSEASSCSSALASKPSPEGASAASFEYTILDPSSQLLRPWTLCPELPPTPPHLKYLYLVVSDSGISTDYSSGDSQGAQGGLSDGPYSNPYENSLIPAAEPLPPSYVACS
Protocol: (§2) Primary micro-dissected fetal brain tissue was obtained from a commercial source (Advanced Bioscience Resources, Inc., Alameda, Calif.). Cultured primary human fetal neural cells (3 h, 1 day, 17 days, or 26 days in culture) were incubated with Compound 5, Compound 6, or controls for 10 min (FIG. 5A). Phospho-EPOR was detected by ELISA (R&D Systems). […] Human erythropoietic cell line TF-1 was cultured for 10 min in the presence of Compound 5, Compound 6, or the controls, and phospho-EPOR was detected by ELISA (R&D Systems). The data represent mean+SEM of triplicate cultures.

rats = experiment: Kidney and CNS protection in rats with DMA + Cremophor EL toxicity; format: in vivo, rat; details: DMA + CrEL 2.5 mL/kg each, IP
Protocol: High-dose N,N-dimethylacetamide (DMA)+ Cremophor EL (CrEL) (2.5 mL/kg each, IP) was used to induce acute CNS and organ toxicity, and the potential of Compound 5 to protect the rats was studied.

EPO receptor [4] = target: T1, EPO receptor; experiment: EPO receptor phosphorylation in primary human fetal neural cells (phospho-EPOR ELISA); format: cell-based; parameters: endogenous in cells; host or cells: primary human fetal neural cells from micro-dissected fetal brain tissue (Advanced Bioscience Resources, Inc.); details: 10 min incubation; for level of EPO receptor activation compared with recombinant human EPO: EPO 10 IU/ml
Protocol: as §2, with “cultures. […] The receptor activation results were consistent with functional cell based assays using primary human CD34+ bone marrow progenitor cells and erythroleukemia cell line TF-1.” for “cultures.”

frataxin [5] = experiment: Frataxin protein levels in primary human fetal neurons (ELISA); format: cell-based; details: 28 days in culture, 24 h, relative to total protein
Protocol: The effects of the compounds on frataxin protein levels in cells were analyzed. […] Embryonic mouse cell line P19 was differentiated into neuronal cells in the presence of retinoic acid and frataxin levels were measured (FIG. 4A). Frataxin levels were measured after 24 h by multi-species frataxin-ELISA (MitoSciences) and compared to total protein levels. The data represent mean+SEM. Primary human fetal neurons (28 days in culture) were also incubated for 24 h in the presence of the compounds, and human frataxin levels were measured by ELISA (MitoSciences) and compared to total protein levels (FIG. 4B). The data represent mean+SEM of triplicate measurements. Compounds were also tested for their effects on frataxin levels in cells derived from patients with FRDA. Cultures of patient peripheral blood mononuclear cells (PBMCs) were also used to test the EPO mimetic compounds for frataxin enhancement in frataxin-deficient cells. Compound 1 and Compounds 5-6 enhanced frataxin levels in these patient cells at concentration 1 uM or lower.

frataxin [6] = details: 8 FRDA patients, open label pilot trial; cited from earlier work
frataxin [7] = details: patients with chronic kidney disease, rhEPO infusion for anemia; cited from earlier work
[8] = tested on: primary dopaminergic neurons; experiment: Protection of primary dopaminergic neurons from 6-OHDA (THir neurons); format: cell-based, rat; details: 6.25 uM 6-OHDA 40 minute
Protocol: Dissociated embryonic D14 rat ventral mesencephalic cells were used.
Dopaminergic neurons play a key role in the pathogenesis of Parkinson's disease and compounds enhancing survival of these cells have significant therapeutic potential. Dissociated embryonic D14 rat ventral mesencephalic cells were used to test the potential of EPO mimetic compounds to protect primary dopaminergic neurons. […] The cells were plated in 48-well poly-D-lysine coated plates using a microisland technique. The microislands were seeded into dry plates in 10 uL aliquots of 3000 cells/uL and incubated at 37° C. for 1 h to allow for adhesion. […] On day 3, the medium was replaced with 6.25 uM 6-hydroxydopamine (6-OHDA, Sigma) for a 40 minute incubation. The toxin was then removed and the cells were cultured for an additional 2 days. On day 5, the cells were fixed, permeabilized and stained for tyrosine hydroxylase-immunoreactive (THir) neurons.

[9] = following intravenous administration; cited from earlier work
PC12 cells = experiment: PC12 cell survival under serum deprivation (CellTiter-Glo); format: cell-based, rat; details: 72 hours; for minimal effective concentration: Rattus norvegicus, PC-12, NS = RLU increased <25% at 5 uM, read-out: PC12 cell proliferation (CellTiter-Glo ®) Concentration at which RLU increased >25% compared to medium control
Protocol: Each culture condition was performed in quadruplicate in each experiment and the mean values were calculated. The results represent mean±SEM of relative light unit values when compared to the mean values obtained in the presence of the medium alone. A total of 13 experiments were performed and the statistical significance was analyzed using GraphPad Prism software using ANOVA, followed by paired t-test. The symbol * indicates P-values<0.01.
PC12 cells were cultured in DMEM supplemented with 10% fetal calf serum and 5% horse serum. […] Cell viability was analyzed by CellTiter-Glo® reagent (Promega).
PC12 cells were cultured in DMEM supplemented with 10% fetal calf serum and 5% horse serum. […] Cell survival of the serum-starved cells was analyzed by CellTiter-Glo® reagent luminescence reading.
FIG. 2 illustrates neuroprotective effects of Compounds 1-5 when tested in PC12 cell protection assays. PC12 cells were subjected to serum deprivation as described under FIG. 1.
PC12 cells were cultured in DMEM supplemented with 10% fetal calf serum and 5% horse serum. […] Cell survival of the serum-starved cells was analyzed by CellTiter-Glo® reagent luminescence reading (relative light units, “RLU”). […] “NS” indicates RLU increased <25% when compounds were tested at 5 uM.

Compound: COc1ccc(NC(=O)CSc2nc3nc(C)cc(C)n3n2)cc1 [Example 10, 2-({5,7-dimethyl-[1,2,4]triazolo[1,5-a]pyrimidin-2-yl}sulfanyl)-N-(4-methoxyphenyl)acetamide]
erythroid differentiation (CD235a expression) [1]: differentiation into erythroid cells expressing CD235a
CD34+ progenitor cell proliferation (ATP levels) [2]: dose-dependent induction of CD34+ progenitor cell proliferation

EPO receptor activation (phospho-EPOR) (EPO receptor [3]): did not activate EPO receptor
Compound: Cc1cc(C)n2nc(OCCOc3ccc(Cl)cc3)nc2n1 [Example 11, 2-[2-(4-chlorophenoxy)ethoxy]-5,7-dimethyl-[1,2,4]triazolo[1,5-a]pyrimidine]
proliferation of TF-1 cells (TF-1 cells): did not induce proliferation of TF-1 cells
kidney-protective effect (hypoproteinemia in serum) (rats): reduced hypoproteinemia in serum
response to formalin injection (rats): normalized the response of the rats to formalin injection
EPO receptor phosphorylation (EPO receptor [4]): increased EPO receptor phosphorylation in a dose-dependent manner
level of EPO receptor activation compared with recombinant human EPO (EPO receptor [4]): comparable to that induced by recombinant human EPO
frataxin protein levels (frataxin [5]): increased frataxin protein levels

Compound: rhEPO: recombinant human (rh)EPO, erythropoietin; positive control
overall increase in frataxin in lymphocytes (frataxin [6]): 24%
increase in frataxin levels in peripheral blood mononuclear cells (frataxin [7]): 2-3 fold
protection of dopaminergic neurons from 6-OHDA toxicity ([8]; 10 IU/ml): significantly protected
concentration in human cerebrospinal fluid lower than in circulation [9]: more than 1000 fold

Compound: Cc1cc(C)n2nc(SCCOc3ccc(F)c(Cl)c3)nc2n1 [Example 6, 2-{[2-(3-chloro-4-fluorophenoxy)ethyl]sulfanyl}-5,7-dimethyl-[1,2,4]triazolo[1,5-a]pyrimidine]
minimal effective concentration (PC12 cells; serum-free conditions): < 5 µM

Compound: CCc1cc(CC)n2nc(CCCOc3ccc(Cl)cc3)nc2n1 [Example 28, 2-[3-(4-chlorophenoxy)propyl]-5,7-diethyl-[1,2,4]triazolo[1,5-a]pyrimidine]
minimal effective concentration (PC12 cells; serum-free conditions): < 5 µM

Compound: Cc1cc(C)n2nc(SCCOc3ccc(Cl)cc3)nc2n1 [Example 1, 2-{[2-(4-chlorophenoxy)ethyl]sulfanyl}-5,7-dimethyl-[1,2,4]triazolo[1,5-a]pyrimidine]
effect on PC12 cell viability compared with rhEPO (PC12 cells; compound at 1 uM, serum-free): at least a comparable effect on cell viability as rhEPO
level of PC12 cell protection compared with rhEPO at 10 U/ml (PC12 cells; compound at 5 uM, serum-free): even higher level of protection than rhEPO
concentration at which significant protective effect on PC12 cells was observed (PC12 cells; serum-free conditions): 1 µM
protection of dopaminergic neurons from 6-OHDA toxicity ([8]; 1 uM): significantly protected

EPO receptor activation (phospho-EPOR) (EPO receptor [3]): did not activate EPO receptor
Compound: Cc1cc(C)n2nc(OCCN(CCO)c3ccccc3)nc2n1 [Example 13, 2-{[2-({5,7-Dimethyl-[1,2,4]triazolo[1,5-a]pyrimidin-2-yl}oxy)ethyl](phenyl)amino}ethan-1-ol]
proliferation of TF-1 cells (TF-1 cells): did not induce proliferation of TF-1 cells
EPO receptor phosphorylation (EPO receptor [4]): increased EPO receptor phosphorylation in a dose-dependent manner
level of EPO receptor activation compared with recombinant human EPO (EPO receptor [4]): comparable to that induced by recombinant human EPO
frataxin protein levels (frataxin [5]): increased frataxin protein levels
